Experimental data from article PMC12767106, “In Situ Assembly of Transformable Monopeptide on Activated Neutrophils Attenuates NETs‐Induced Hepatocellular Carcinoma Metastasis by Disrupting NE Nuclear Translocation” (Advanced Science, 2025).

Experiments:
[1] = Zeta potential before and after incubation with NE; format: physicochemical; settings: 20 µM, mean ± s.d., n = 3
Protocol: Submitted to Advanced Science temperature. Following the incubation, 10 µL of the solution was added to a copper mesh at 0 and 24 h. Filter paper was used to remove any extra droplets after an overnight stay. The samples were then stained for five minutes with uranyl acetate and then rinsed for one minute with water (10 µL). Finally, dried samples were observed by TEM (Talos 120C, Thermo Fisher Scientific, USA). DLS (Zetasizer Nano ZS, UK) was used to assess the solution for hydrodynamic size and zeta potential at 0 and 24 h following the incubation. Then, the nanofiber structure at 0 h and 24 h after incubation of FTP-NPs was examined with Circular Dichroism (CD) Spectra (Chirascan, UM, Britain). In addition, the variation of fluorescence emission spectra of PpIX by […]
transformation of FTP-NPs.
Pyrene molecules were employed as an indicator to determine the critical aggregation concentration (CAC) of nanoparticles by comparing the fluorescence of their third and first emissive peaks. […] The fluorescence spectra of pyrene (excitation, 335 nm) in different NPs dilutions were recorded. The fluorescence intensity ratio (I3/I1) of the third and first emissive peaks was measured for CAC calculation. […]
Figure S3. […] (a, b) Changes in fluorescence and UV–vis absorption of FTP-NPs following the gradual addition of water (from 0 to 99.5%) to a solution of NPs in Dimethyl Sulfoxide (DMSO). […]

Hepa1-6 cells = assay: Trans-endothelial invasion assay; format: cell-based, mouse; settings: 48 h, versus Control group
Protocol: Cell migration and invasion assay […]
Matrigel tube formation assay
Murine C166 endothelial cells (3×10^4cells/well) were placed on 96-well plates coated with Matrigel (356231, Corning, New York, USA) and incubated with various treatments. […]
In vitro permeability assays and trans-endothelial invasion assays
For in vitro permeability assays, C166 cells were treated with Resting neutrophils, Control, NFTP-NPs, FTP-NPs, and NEi groups for 48 h to form an endothelial monolayer, and then Evans Blue (PHYGENE, China) was added to the upper layer of the transwell filters (0.4 μm, Corning). After 30 min, the medium in the lower layer of the chamber was collected to measure the absorbance at 620 nm (Tecan Infinite M200, Switzerland).
For trans-endothelial invasion assays, […] Hepa1-6/luc cells were seeded into transwell filters (8 μm, Corning) with endothelial cell monolayers pretreated with resting neutrophils, Control, NFTP-NPs, FTP-NPs, and NEi groups. After incubation for 48 h, the transmembrane cells were washed, fixed with 4% paraformaldehyde, stained with crystal violet, and observed under a microscope (Axiovert 200, Zeiss, Germany).
All the experiments were performed thrice. […]

PpIX-GFFVLK-EAIPMSIPPEVK [FTP-NPs]
zeta potential, initial NPs ([1]; before fibrillar transformation): 21.7±0.6 mV | zeta potential after fibrillar transformation ([1]; with NE for 24 h): 9.2±0.2 mV | number of Hepa1-6 cells passing through the endothelial monolayer (Hepa1-6 cells): significantly lower
